# Patent publication US20100130737A1, “Regulating Agent of GPR34 Receptor Function” (TAKEDA PHARMACEUTICAL COMPANY LIMITED, priority 2005, published 2010)
row,Compound,melting point
1,"CS(=O)(=O)Nc1cccc(COc2ccc(CC(=O)NC3(C(=O)O)Cc4ccc(-c5ccc(Cl)cc5)cc4C3)cc2)c1 (stereo not shown) [Example B193, 5-(4-Chlorophenyl)-2-({[4-({3-[(methylsulfonyl)amino]benzyl)oxy)phenyl]acetyl}amino)indan-2-carboxylic acid]",169 to 170 °C
2,"Nc1ccccc1COc1ccc(CC(=O)NC2(C(=O)O)Cc3ccc(-c4ccc(Cl)cc4)cc3C2)cc1 (stereo not shown) [Example B194, 2-[({4-[(2-Aminobenzyl)oxy]phenyl}acetyl)amino]-5-(4-chlorophenyl)indan-2-carboxylic acid]",149 to 150 °C
3,"Cc1c(C(=O)NC2(C(=O)O)Cc3cccc(Br)c3C2)oc2cc(-c3ccc(Cl)cc3)ccc12 (stereo not shown) [Example C113, 4-Bromo-2-({[6-(4-chlorophenyl)-3-methyl-1-benzofuran-2-yl]carbonyl}amino)indan-2-carboxylic acid]",230 °C
4,"Cc1c(C(=O)NC2(C(=O)O)Cc3ccc(Br)cc3C2)oc2cc(-c3ccc(Cl)cc3)ccc12 (stereo not shown) [Example C114, 5-Bromo-2-({[6-(4-chlorophenyl)-3-methyl-1-benzofuran-2-yl]carbonyl}amino)indan-2-carboxylic acid]",227 °C
5,"Cc1c(C(=O)N[C@H](Cc2ccc(OCc3ccccc3)cc2)C(=O)O)oc2cc(-c3ccc(Cl)cc3)ccc12 [Example C116, O-Benzyl-N-{[6-(4-chlorophenyl)-3-methyl-1-benzofuran-2-yl]carbonyl}-D-tyrosine]",113 to 114 °C
6,"Cc1c(C(=O)N[C@@H](Cc2ccc(OCc3ccsc3)cc2)C(=O)O)oc2cc(-c3ccc(Cl)cc3)ccc12 [Example C118, N-{[6-(4-Chlorophenyl)-3-methyl-1-benzofuran-2-yl]carbonyl}-O-(3-thienylmethyl)-L-tyrosine]",111 to 113 °C
7,"Cc1c(C(=O)N[C@@H](Cc2ccc(OCc3ccoc3)cc2)C(=O)O)oc2cc(-c3ccc(Cl)cc3)ccc12 [Example C119, N-{[6-(4-Chlorophenyl)-3-methyl-1-benzofuran-2-yl]carbonyl}-O-(3-furylmethyl)-L-tyrosine]",108 to 110 °C
8,"O=C(N[C@@H](Cc1ccc(OCc2ccoc2)cc1)C(=O)O)c1cc2ccc(-c3ccc(Cl)cc3)cc2s1 [Example C124, N-{[6-(4-Chlorophenyl)-1-benzothiophene-2-yl]carbonyl}-O-(3-furylmethyl) tyrosine]",200 to 201 °C
9,"O=C(N[C@@H](Cc1ccc(OCc2ccoc2)cc1)C(=O)O)c1cc2cc(-c3ccc(Cl)cc3)ccc2s1 [Example C125, N-{[5-(4-Chlorophenyl)-1-benzothiophene-2-yl]carbonyl}-O-(3-furylmethyl) tyrosine]",172 to 173 °C
10,"O=C(N[C@@H](Cc1ccc(OCc2cccc(F)c2)cc1)C(=O)O)c1cc2cc(-c3ccc(Cl)cc3)ccc2s1 [Example C126, N-{[5-(4-Chlorophenyl)-1-benzothiophene-2-yl]carbonyl}-O-(3-fluorobenzyl) tyrosine]",184 to 185 °C
11,"Cc1cccc(COc2ccc(C[C@H](NC(=O)c3cc4cc(-c5ccc(Cl)cc5)ccc4s3)C(=O)O)cc2)c1 [Example C127, N-{[5-(4-Chlorophenyl)-1-benzothiophene-2-yl]carbonyl}-O-(3-methylbenzyl)tyrosine]",192 to 193 °C
12,"COc1cccc(COc2ccc(C[C@H](NC(=O)c3cc4cc(-c5ccc(Cl)cc5)ccc4s3)C(=O)O)cc2)c1 [Example C128, N-{[5-(4-Chlorophenyl)-1-benzothiophene-2-yl]carbonyl}-O-(3-methoxybenzyl)tyrosine]",175 to 177 °C
13,"CC(C)Oc1ccc(-c2ccc3sc(C(=O)N[C@@H](Cc4ccc(OCc5ccc(F)cc5)cc4)C(=O)O)cc3c2)cc1 [Example C130, O-(4-Fluorobenzyl)-N-{[5-(4-isopropoxyphenyl)-1-benzothiophene-2-yl]carbonyl}tyrosine]",204 to 205 °C
14,"Cc1ccc(COc2ccc(C[C@H](NC(=O)c3cc4cc(-c5ccc(Cl)cc5)ccc4s3)C(=O)O)cc2)cc1 [Example C134, N-{[5-(4-Chlorophenyl)-1-benzothiophene-2-yl]carbonyl}-O-(4-methylbenzyl)tyrosine]",208 °C
15,"O=C(N[C@@H](Cc1ccc(OCc2ccc(Cl)cc2)cc1)C(=O)O)c1cc2cc(-c3ccc(Cl)cc3)ccc2s1 [Example C135, O-(4-Chlorobenzyl)-N-{[5-(4-chlorophenyl)-1-benzothiophene-2-yl]carbonyl}tyrosine]",196 to 197 °C
16,"N#Cc1ccc(COc2ccc(C[C@H](NC(=O)c3cc4cc(-c5ccc(Cl)cc5)ccc4s3)C(=O)O)cc2)cc1 [Example C136, N-{[5-(4-Chlorophenyl)-1-benzothiophene-2-yl]carbonyl)-O-(4-cyanobenzyl)tyrosine]",164 °C
17,"CCc1ccc(COc2ccc(C[C@H](NC(=O)c3cc4cc(-c5ccc(Cl)cc5)ccc4s3)C(=O)O)cc2)cc1 [Example C137, N-{[5-(4-Chlorophenyl)-1-benzothiophene-2-yl]carbonyl}-O-(4-ethylbenzyl)tyrosine]",205 °C
18,"O=C(N[C@@H](Cc1ccc(OCc2ccc(C(F)(F)F)cc2)cc1)C(=O)O)c1cc2cc(-c3ccc(Cl)cc3)ccc2s1 [Example C138, N-{[5-(4-Chlorophenyl)-1-benzothiophene-2-yl]carbonyl}-O-[4-(trifluoromethyl)benzyl]tyrosine]",198 °C

# Now from value to compound:
row,melting point,Compound
1,204 to 207 °C,"Cc1ccc(COc2ccc(C[C@H](NC(=O)c3cc4cc(C#Cc5ccccc5)ccc4s3)C(=O)O)cc2)cc1 [Example C140, O-(4-Methylbenzyl)-N-{[5-(phenylethynyl)-1-benzothiophene-2-yl]carbonyl}tyrosine]"
2,216 to 221 °C,"O=C(NC(Cc1ccc(OCc2ccc(Cl)cc2)cc1)C(=O)O)c1cc2cc(C#Cc3ccccc3)ccc2s1 (stereo not shown) [Example C141, O-(4-Chlorolbenzyl)-N-{[5-(phenylethynyl)-1-benzothiophene-2-yl]carbonyl)tyrosine]"
3,250 °C,Nc1c(C(=O)NC(Cc2ccc(OCc3ccccc3)cc2)C(=O)O)oc2ccc(-c3ccc(Cl)cc3)cc12 (stereo not shown) [Example C149]
4,196 to 197 °C,"Cc1c(C(=O)N[C@@H](Cc2ccc(OCc3ccoc3)cc2)C(=O)O)oc2ccc(-c3ccc(Cl)cc3)cc12 [Example C150, N-{[5-(4-Chlorophenyl)-3-methyl-1-benzofuran-2-yl]carbonyl}-O-(3-furylmethyl)tyrosine]"
5,159 to 160 °C,"O=C(N[C@@H](Cc1ccc(OCc2ccoc2)cc1)C(=O)O)c1cc2ccc(-c3ccc(Cl)cc3)cc2o1 [Example C151, N-{[6-(4-Chlorophenyl)-1-benzofuran-2-yl]carbonyl}-O-(3-furylmethyl)tyrosine]"
6,211 to 212 °C,"O=C(N[C@@H](Cc1ccc(OCc2ccoc2)cc1)C(=O)O)c1cc2cc(-c3ccc(Cl)cc3)ccc2o1 [Example C152, N-{[5-(4-Chlorophenyl)-1-benzofuran-2-yl]carbonyl}-O-(3-furylmethyl)tyrosine]"
7,157 to 158 °C,"Cc1cccc(COc2ccc(C[C@H](NC(=O)c3cc4ccc(-c5ccc(Cl)cc5)cc4o3)C(=O)O)cc2)c1 [Example C154, N-{[6-(4-Chlorophenyl)-1-benzofuran-2-yl]carbonyl}-O-(3-methylbenzyl)tyrosine]"
8,150 to 151 °C,"COc1cccc(COc2ccc(C[C@H](NC(=O)c3cc4ccc(-c5ccc(Cl)cc5)cc4o3)C(=O)O)cc2)c1 [Example C155, N-{[6-(4-Chlorophenyl)-1-benzofuran-2-yl]carbonyl}-O-(3-methoxybenzyl)tyrosine]"
9,178 °C,"Cc1c(C(=O)N[C@H](C(=O)O)c2ccc(OCc3ccccc3)cc2)oc2cc(-c3ccc(Cl)cc3)ccc12 [Example C156, (2S)-[4-(Benzyloxy)phenyl]({[6-(4-chlorophenyl)-3-methyl-1-benzofuran-2-yl]carbonyl}amino)acetic acid]"
10,204 °C,Cc1ccc(COc2ccc(CC(NC(=O)c3cc4ccc(-c5ccc(Cl)cc5)cc4o3)C(=O)O)cc2)cc1 (stereo not shown) [Example C158]
11,195 °C,"O=C(N[C@@H](Cc1ccc(OCc2ccc(Cl)cc2)cc1)C(=O)O)c1cc2ccc(-c3ccc(Cl)cc3)cc2o1 [Example C159, O-(4-Chlorobenzyl)-N-{[6-(4-chlorophenyl)-1-benzofuran-2-yl]carbonyl}tyrosine]"
12,204 °C,"N#Cc1ccc(COc2ccc(C[C@H](NC(=O)c3cc4ccc(-c5ccc(Cl)cc5)cc4o3)C(=O)O)cc2)cc1 [Example C160, N-{[6-(4-Chlorophenyl)-1-benzofuran-2-yl]carbonyl}-O-(4-cyanobenzyl)tyrosine]"
13,194 °C,"CCc1ccc(COc2ccc(C[C@H](NC(=O)c3cc4ccc(-c5ccc(Cl)cc5)cc4o3)C(=O)O)cc2)cc1 [Example C161, N-{[6-(4-Chlorophenyl)-1-benzofuran-2-yl]carbonyl)-O-(4-ethylbenzyl)tyrosine]"
14,203 °C,O=C(NC(Cc1ccc(OCc2ccc(C(F)(F)F)cc2)cc1)C(=O)O)c1cc2ccc(-c3ccc(Cl)cc3)cc2o1 (stereo not shown) [Example C162]
15,258 to 259 °C,O=C(NC(Cc1ccc(OCc2ccc(F)cc2)cc1)C(=O)O)c1nc2ccc(-c3ccc(Cl)cc3)cc2[nH]1 (stereo not shown) [Example C168]
16,226 to 228 °C,"O=C(/C=C/c1cccc(-c2ccc(Cl)cc2)n1)NC(Cc1ccc(OCc2ccccc2)cc1)C(=O)O (stereo not shown) [Example D3, O-Benzyl-N-{3-[6-(4-chlorophenyl)pyridin-2-yl]acryloyl}tyrosine]"
17,224 to 225 °C,"O=C(/C=C/c1ccc(-c2ccc(Cl)cc2)o1)N[C@@H](Cc1ccc(OCc2ccccc2)cc1)C(=O)O [Example D4, O-Benzyl-N-{(2E)-3-[5-(4-chlorophenyl)-2-furyl]propa-2-enoyl}tyrosine]"
18,203 °C,"O=C(N[C@@H](Cc1ccc(OCc2ccsc2)cc1)C(=O)O)c1cn2cc(-c3ccc(Cl)cc3)ccc2n1 [Example E2, N-{[6-(4-Chlorophenyl)imidazo[1,2-a]pyridin-2-yl]carbonyl}-O-(3-thienylmethyl)-L-tyrosine]"
19,252 to 253 °C,"O=C(N[C@@H](Cc1ccc(OCc2ccccc2)cc1)C(=O)O)c1cn2cc(-c3ccc(Cl)cc3)cnc2n1 [Example E4, O-Benzyl-N-{[6-(4-chlorophenyl)imidazo[1,2-a]pyrimidin-2-yl]carbonyl}tyrosine]"
